These results are taken from patent US6482654B1, “Method of detecting shikimic acid” (Syngenta Limited, priority 2000, dated 2002).

The subject of this assay is plants. Description: Shikimic acid/shikimate accumulation in glyphosate-treated plants, periodate/sulfite chromophore assay. In kind it is in vivo. As to conditions: plants treated with a lethal amount of glyphosate; 5-10 μL of extract of about 150 mg leaf tissue in 8-fold (w/v) 0.25N hydrochloric acid; 1 ml final solution; control about 0.1 AU. As to the method: In the performance of the methods of the invention, for detection of the chromophore, it is preferable to have an absorbance of at least 0.05 absorbance units (AU) for the untreated control plant test sample and an absorbance of less than 2.0 AU for the test sample with the greatest amount of shikimic acid/shikimate in order to obtain optimal results from spectrophotometric measurement of the chromophore. […] After reaction with the periodate reagent and quenching by 0.5 ml of a mixture comprising sulfite and sodium hydroxide, there was 1 ml of solution with an absorbance of about 1.8 AU, while an untreated control plant gave an absorbance of about 0.1 AU.

Take `O=C(O)CNCP(=O)(O)O` [glyphosate, N-(phosphonomethyl) glycine]: the “absorbance of the chromophore (shikimic acid/shikimate accumulated)” value was “about 1.8 AU”.
